Measurements reported in patent US9247759B2, “Identification of human T2R receptors that respond to bitter compounds that elicit the bitter taste in compositions, and the use thereof in assays to identify compounds that inhibit (block) bitter taste in compositions and use thereof” (SENOMYX, INC., priority 2007, dated 2016).
Read-outs that look alike come from different tables or passages of the source.

Legend:
[1] = target: hT2R3 (Homo sapiens (Human), UniProt Q9NYW6); experiment: hT2R panel inhibition, transient HEK293 G16g44, agonist Chloroquine pH6.5 50 μM; assay type: cell-based; settings: HEK293, compound at 25 μM
Procedure, shortened: (§1)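 Transfect one hT2R per well set; stimulate with agonist at EC80; add test compound; record reduction of functional response as inhibition.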

[2] = target: hT2R5 (Homo sapiens (Human), UniProt Q9NYW4); experiment: hT2R panel inhibition, transient HEK293 G16g44, agonist Picoline 10 mM; assay type: cell-based; settings: HEK293, compound at 25 μM; receptor activated to EC80 with the corresponding agonist; read-out: screening result against bitter receptor 5
Procedure, shortened: as §1

[3] = target: hT2R10 (Homo sapiens (Human), UniProt Q9NYW0); experiment: hT2R panel inhibition, transient HEK293 G16g44, agonist Strychnine 50 μM; assay type: cell-based
[4] = target: T1, hT2R14 (Homo sapiens (Human), UniProt Q9NYV8); experiment: hT2R panel inhibition, transient HEK293 G16g44, agonist Aristolochic Acid 2 μM; assay type: cell-based; settings: HEK293, compound at 25 μM
Procedure, shortened: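 Each hT2R was transiently transfected into HEK293 cells stably expressing G16g44 and assayed functionally for inhibition of agonist response. Agonists were applied at EC80: andrographolide at 0.5 mM for hT2R8 and aristolochic acid at 2 μM for hT2R14.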

[5] = target: hT2R16 (Homo sapiens (Human), UniProt Q9NYV7); experiment: hT2R panel inhibition, transient HEK293 G16g44, agonist Salicin 1 mM; assay type: cell-based; settings: HEK293, compound at 25 μM
Procedure, shortened: as §1

[6] = system: hT2R44; experiment: hT2R panel inhibition, transient HEK293 G16g44, agonist Denatonium 0.5 μM; assay type: cell-based, human; settings: compound at 25 μM; for screening result against bitter receptor 44: receptor activated to EC80 with the corresponding agonist
Procedure, shortened: as §1

[7] = target: hT2R51 (Homo sapiens (Human), UniProt P59533); experiment: hT2R panel inhibition, transient HEK293 G16g44, agonist Prop 2.5 μM; assay type: cell-based; settings: HEK293, compound at 25 μM; receptor activated to EC80 with the corresponding agonist; read-out: screening result against bitter receptor 51
Method: (§2) Specifically, in order to evaluate the inhibitory selectivity of the Compound C compound, this compound was tested against 22 human T2Rs which were deorphaned by Senomyx. These receptors and the bitter ligands that activate these human T2Rs are reported in earlier patent applications which are incorporated by reference herein. These 22 human T2Rs are hT2R1, 3, 4, 5, 7, 8, 9, 10, 13, 14, 16, 44, 51, 54, 55, 61, 63, 64, 65, 67, 71 and 75. The amino acid and nucleic acid sequences of all of these T2Rs may be found in these earlier patent applications. These human T2Rs were each individually transiently transfected into HEK293 cells that stably express the promiscuous G protein G16g44 and functional assays were effected using these receptors as disclosed in these same patent applications. […] The ligands were used at EC80 concentration levels. The list of bitter ligands utilized and the tested ligand concentrations are contained in Table 5 of this example.
(§3) Relating to the foregoing, FIG. 5 contains experimental results wherein Compound C was tested with different agonist compounds. The inhibition activity is represented by the reduction of receptor activity in the presence of Compound C. […] These 13 hT2Rs are hT2R3, 7, 10, 14, 16, 44, 51, 55, 61, 63, 64, 65, and 71.

[8] = system: hT2R54; experiment: hT2R panel inhibition, transient HEK293 G16g44, agonist Ranitidine 5 mM; assay type: cell-based, human; settings: compound at 25 μM; receptor activated to EC80 with the corresponding agonist
Method: as §2, §3

[9] = system: hT2R55; experiment: hT2R panel inhibition, transient HEK293 G16g44, agonist Cinchonine 150 μM; assay type: cell-based, human; settings: compound at 25 μM; for screening result against bitter receptor 55: receptor activated to EC80 with the corresponding agonist
Procedure, shortened: as §1

[10] = target: hT2R61 (Homo sapiens (Human), UniProt P59537); experiment: hT2R panel inhibition, transient HEK293 G16g44, agonist Aristolochic Acid 25 nM; assay type: cell-based; settings: HEK293, compound at 25 μM
Procedure, shortened: as §1

[11] = system: hT2R63; experiment: hT2R panel inhibition, transient HEK293 G16g44, agonist Caffeine 1 mM or Andrographolide 100 μM; assay type: cell-based, human; settings: compound at 25 μM; for screening result against bitter receptor 63: receptor activated to EC80 with the corresponding agonist
Procedure, shortened: as §1

[12] = target: hT2R64 (Homo sapiens (Human), UniProt P59538); experiment: hT2R panel inhibition, transient HEK293 G16g44, agonist Aristolochic Acid 1 μM; assay type: cell-based; settings: HEK293, compound at 25 μM
Procedure, shortened: as §1

[13] = system: hT2R65; experiment: hT2R panel inhibition, transient HEK293 G16g44, agonist Oleuropein 1 mM; assay type: cell-based, human; settings: compound at 25 μM; for screening result against bitter receptor 65: receptor activated to EC80 with the corresponding agonist
Method: as §2, §3

[14] = system: hT2R67; experiment: hT2R panel inhibition, transient HEK293 G16g44, agonist Andrographolide 5 μM; assay type: cell-based, human; settings: compound at 25 μM; receptor activated to EC80 with the corresponding agonist
Method: as §2, §3

[15] = target: hT2R71 (Homo sapiens (Human), UniProt P59536); experiment: hT2R panel inhibition, transient HEK293 G16g44, agonist Picric Acid 10 μM; assay type: cell-based; settings: HEK293, compound at 25 μM
Procedure, shortened: as §1

[16] = target: hT2R75 (Homo sapiens (Human), UniProt P59540); experiment: hT2R panel inhibition, transient HEK293 G16g44, agonist Strychnine 1 μM; assay type: cell-based
Method: as §2, §3

[17] = target: T1, hT2R14; experiment: hT2R14 antagonist high-throughput FLIPR assay, stable cell line with G16g44, agonist aristolochic acid; assay type: cell-based; settings: read-out: IC50 on hT2R14 bitter receptor
Procedure, shortened: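 HEK293 cells stably expressing hT2R14 with chimeric G16g44 were stimulated with aristolochic acid (3 μM), giving 70-80% of maximal receptor activity. Test compounds were added together with the agonist, and antagonism was read as fluorescent calcium signal on FLIPR.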

[18] = target: hT2R7 (Homo sapiens (Human), UniProt Q9NYW3); experiment: hT2R panel inhibition, transient HEK293 G16g44, agonist Chloroquine pH6.5 10 mM; assay type: cell-based; settings: HEK293, compound at 25 μM; receptor activated to EC80 with the corresponding agonist; read-out: screening result against bitter receptor 7
Procedure, shortened: as §1

[19] = receptor activated to EC80 with the corresponding agonist, read-out: screening result against bitter receptor 3
[20] = HEK293, read-out: screening result against bitter receptor 10, compound at 25 μM, receptor activated to EC80 with the corresponding agonist
[21] = receptor activated to EC80 with the corresponding agonist, read-out: screening result against bitter receptor 14
[22] = receptor activated to EC80 with the corresponding agonist, read-out: screening result against bitter receptor 16
[23] = receptor activated to EC80 with the corresponding agonist, read-out: screening result against bitter receptor 61
[24] = receptor activated to EC80 with the corresponding agonist, read-out: screening result against bitter receptor 64
[25] = receptor activated to EC80 with the corresponding agonist, read-out: screening result against bitter receptor 71
[26] = HEK293, read-out: screening result against bitter receptor 75, compound at 25 μM, receptor activated to EC80 with the corresponding agonist
[27] = receptor activated to EC80 with agonist

Sequence of hT2R3 (Q9NYW6 whole entry): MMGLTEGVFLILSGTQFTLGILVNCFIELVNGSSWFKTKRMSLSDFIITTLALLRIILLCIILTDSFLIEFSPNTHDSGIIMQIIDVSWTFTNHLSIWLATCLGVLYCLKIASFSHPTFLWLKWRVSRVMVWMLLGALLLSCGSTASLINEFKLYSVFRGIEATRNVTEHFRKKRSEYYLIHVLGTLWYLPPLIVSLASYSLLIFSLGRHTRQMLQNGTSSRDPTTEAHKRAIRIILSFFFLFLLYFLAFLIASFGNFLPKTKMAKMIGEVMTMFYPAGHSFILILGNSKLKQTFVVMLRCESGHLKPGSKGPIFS
Sequence of hT2R64 (P59538 whole entry): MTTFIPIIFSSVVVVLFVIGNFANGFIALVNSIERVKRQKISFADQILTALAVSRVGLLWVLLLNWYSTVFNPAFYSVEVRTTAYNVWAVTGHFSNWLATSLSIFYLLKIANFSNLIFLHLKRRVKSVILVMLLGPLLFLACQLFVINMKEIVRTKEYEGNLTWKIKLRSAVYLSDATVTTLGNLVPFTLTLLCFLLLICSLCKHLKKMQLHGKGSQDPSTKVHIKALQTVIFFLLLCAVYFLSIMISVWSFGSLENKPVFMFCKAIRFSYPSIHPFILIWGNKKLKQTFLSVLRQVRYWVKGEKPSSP
Sequence of hT2R10 (Q9NYW0 whole entry): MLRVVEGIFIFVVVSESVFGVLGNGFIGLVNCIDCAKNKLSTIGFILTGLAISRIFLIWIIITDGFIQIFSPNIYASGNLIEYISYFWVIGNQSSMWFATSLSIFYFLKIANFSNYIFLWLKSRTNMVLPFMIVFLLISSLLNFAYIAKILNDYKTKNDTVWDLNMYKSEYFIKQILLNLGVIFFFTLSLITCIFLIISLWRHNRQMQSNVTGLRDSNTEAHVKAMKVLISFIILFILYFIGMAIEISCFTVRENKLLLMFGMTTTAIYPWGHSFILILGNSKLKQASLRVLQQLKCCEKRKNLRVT
Sequence of hT2R16 (Q9NYV7 whole entry): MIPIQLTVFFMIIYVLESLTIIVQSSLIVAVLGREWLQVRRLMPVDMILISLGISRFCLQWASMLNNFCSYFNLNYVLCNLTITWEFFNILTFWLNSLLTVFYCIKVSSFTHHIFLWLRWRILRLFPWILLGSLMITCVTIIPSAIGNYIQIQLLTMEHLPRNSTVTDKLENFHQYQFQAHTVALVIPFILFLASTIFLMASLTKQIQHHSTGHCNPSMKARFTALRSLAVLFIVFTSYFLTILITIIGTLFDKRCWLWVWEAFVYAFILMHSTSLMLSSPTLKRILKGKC
Sequence of hT2R51 (P59533 whole entry): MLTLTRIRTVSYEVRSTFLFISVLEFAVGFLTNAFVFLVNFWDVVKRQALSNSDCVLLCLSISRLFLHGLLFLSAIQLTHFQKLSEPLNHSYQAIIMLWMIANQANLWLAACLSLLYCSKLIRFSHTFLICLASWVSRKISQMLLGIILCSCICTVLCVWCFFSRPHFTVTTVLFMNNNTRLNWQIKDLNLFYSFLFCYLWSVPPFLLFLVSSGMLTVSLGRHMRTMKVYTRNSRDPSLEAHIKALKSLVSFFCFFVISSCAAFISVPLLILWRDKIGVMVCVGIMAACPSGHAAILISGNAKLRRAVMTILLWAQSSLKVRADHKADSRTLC
Sequence of hT2R61 (P59537 whole entry): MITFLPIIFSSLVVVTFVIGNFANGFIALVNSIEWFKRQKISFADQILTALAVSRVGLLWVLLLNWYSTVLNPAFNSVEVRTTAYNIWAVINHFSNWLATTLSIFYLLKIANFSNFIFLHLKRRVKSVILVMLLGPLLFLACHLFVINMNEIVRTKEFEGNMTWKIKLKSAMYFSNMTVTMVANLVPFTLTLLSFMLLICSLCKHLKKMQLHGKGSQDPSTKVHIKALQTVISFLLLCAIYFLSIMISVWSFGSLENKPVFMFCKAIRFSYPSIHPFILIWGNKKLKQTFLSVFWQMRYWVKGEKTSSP
T1 sequence (Q9NYV8 whole entry): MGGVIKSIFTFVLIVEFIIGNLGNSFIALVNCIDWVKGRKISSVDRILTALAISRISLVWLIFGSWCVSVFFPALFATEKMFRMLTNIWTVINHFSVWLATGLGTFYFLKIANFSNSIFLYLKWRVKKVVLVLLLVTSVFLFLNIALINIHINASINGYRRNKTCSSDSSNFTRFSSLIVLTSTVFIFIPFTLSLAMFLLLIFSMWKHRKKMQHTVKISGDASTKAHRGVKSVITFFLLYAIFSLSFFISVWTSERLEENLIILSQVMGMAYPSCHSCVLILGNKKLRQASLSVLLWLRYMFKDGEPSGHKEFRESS
Sequence of hT2R5 (Q9NYW4 whole entry): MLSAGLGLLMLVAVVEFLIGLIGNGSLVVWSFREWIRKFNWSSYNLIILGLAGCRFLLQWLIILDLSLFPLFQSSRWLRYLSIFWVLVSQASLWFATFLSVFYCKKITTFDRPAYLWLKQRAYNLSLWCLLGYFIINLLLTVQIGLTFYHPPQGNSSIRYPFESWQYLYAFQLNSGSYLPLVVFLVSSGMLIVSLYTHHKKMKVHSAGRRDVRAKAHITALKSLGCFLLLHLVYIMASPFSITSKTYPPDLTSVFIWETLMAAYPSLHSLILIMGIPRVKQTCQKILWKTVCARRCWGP
Sequence of hT2R71 (P59536 whole entry): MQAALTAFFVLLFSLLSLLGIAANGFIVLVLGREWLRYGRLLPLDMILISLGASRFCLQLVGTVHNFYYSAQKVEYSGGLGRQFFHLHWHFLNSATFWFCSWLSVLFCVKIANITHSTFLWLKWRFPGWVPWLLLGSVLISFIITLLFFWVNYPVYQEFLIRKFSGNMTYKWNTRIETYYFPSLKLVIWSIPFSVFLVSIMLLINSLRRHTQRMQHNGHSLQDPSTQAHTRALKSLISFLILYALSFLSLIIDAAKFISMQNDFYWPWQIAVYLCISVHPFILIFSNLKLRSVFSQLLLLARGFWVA
Sequence of hT2R75 (P59540 whole entry): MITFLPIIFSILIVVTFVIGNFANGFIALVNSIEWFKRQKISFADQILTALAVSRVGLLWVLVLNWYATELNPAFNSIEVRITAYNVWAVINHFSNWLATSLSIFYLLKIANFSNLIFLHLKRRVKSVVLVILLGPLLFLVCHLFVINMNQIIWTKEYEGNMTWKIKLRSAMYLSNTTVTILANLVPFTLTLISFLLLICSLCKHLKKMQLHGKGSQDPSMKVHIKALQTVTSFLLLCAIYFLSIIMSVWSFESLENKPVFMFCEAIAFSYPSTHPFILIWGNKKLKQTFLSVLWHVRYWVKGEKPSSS
Sequence of hT2R7 (Q9NYW3 whole entry): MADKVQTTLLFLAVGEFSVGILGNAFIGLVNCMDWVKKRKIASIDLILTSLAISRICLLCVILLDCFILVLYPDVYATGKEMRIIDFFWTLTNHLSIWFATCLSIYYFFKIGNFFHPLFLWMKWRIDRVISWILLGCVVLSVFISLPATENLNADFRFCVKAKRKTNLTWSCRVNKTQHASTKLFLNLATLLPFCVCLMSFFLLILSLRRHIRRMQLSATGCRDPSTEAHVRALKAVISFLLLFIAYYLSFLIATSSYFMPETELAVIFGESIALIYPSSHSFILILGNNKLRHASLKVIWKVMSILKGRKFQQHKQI

| Structure (SMILES) | inhibition at 25 µM [1, 19] | inhibition at 25 µM [2] | inhibition at 25 µM [3, 20] | inhibition at 25 µM [4, 21] | inhibition at 25 µM [5, 22] | screening result against bitter receptor 44 [6] | inhibition at 25 µM [7] | screening result against bitter receptor 54 [8] | screening result against bitter receptor 55 [9] | inhibition at 25 µM [10, 23] | screening result against bitter receptor 63 [11] | inhibition at 25 µM [12, 24] | screening result against bitter receptor 65 [13] | screening result against bitter receptor 67 [14] | inhibition at 25 µM [15, 25] | inhibition at 25 µM [16, 26] | other results |
| --- | --- | --- | --- | --- | --- | --- | --- | --- | --- | --- | --- | --- | --- | --- | --- | --- | --- |
| O=C(O)c1ccc(S(=O)(=O)N(Cc2ccccc2)Cc2cccc(Cl)c2)cc1 [Example 5-84, 4-(N-benzyl-N-(3-chlorobenzyl)sulfamoyl)benzoic acid] | 40 to 60% | 20 to 40% | 20 to 40% | > 80% | 20 to 40% | + (20% to 40% inhibition = +) | 60 to 80% | ++ (40% to 60% inhibition = ++) | +++ (60% to 80% inhibition = +++) | > 80% | +++ (60% to 80% inhibition = +++) | 20 to 40% | +++ (60% to 80% inhibition = +++) | + (20% to 40% inhibition = +) | 20 to 40% | 20 to 40% | – |
| COc1ccccc1CN(Cc1ccc(C(=O)O)cc1)S(=O)(=O)c1ccc(O)cc1 [Example 5-42, 4-((4-hydroxy-N-(2-methoxybenzyl)phenylsulfonamido)methyl)-benzoic acid] | 20 to 40% | – | – | > 80% | 20 to 40% | ++ (40% to 60% inhibition = ++) | – | – | – | > 80% | ++ (40% to 60% inhibition = ++) | 40 to 60% | – | – | 40 to 60% | 20 to 40% | IC50 [17]: 2.56 µM |
| COc1ccc(CN(C(C)c2ccccc2)S(=O)(=O)c2ccc(C(=O)O)cc2)cc1 (centres unmarked) [Example 5-95, 4-(N-(4-methoxybenzyl)-N-(1-phenylethyl)sulfamoyl)benzoic acid] | 40 to 60% | 20 to 40% | 20 to 40% | > 80% | 40 to 60% | +++ (60% to 80% inhibition = +++) | 20 to 40% | – | ++++ (80% or greater inhibition = ++++) | > 80% | ++++ (80% or greater inhibition = ++++) | 60 to 80% | +++ (60% to 80% inhibition = +++) | + (20% to 40% inhibition = +) | 40 to 60% | 20 to 40% | inhibition at 25 µM [18]: 20 to 40% |
| COc1ccc(CN(Cc2ccccc2)S(=O)(=O)c2ccc(CCC(=O)O)cc2)cc1 [Example 5-59, 3-(4-(N-benzyl-N-(4-methoxybenzyl)sulfamoyl)phenyl)propanoic acid] | – | – | – | – | – | – | – | – | – | 40 to 60% | + (20% to 40% inhibition = +) | – | – | – | – | 20 to 40% | – |
| CSc1ccc(CN(Cc2ccccc2)S(=O)(=O)c2ccc(C(=O)O)cc2)cc1 [Example 5-78, 4-(N-benzyl-N-(4-(methylthio)benzyl)sulfamoyl)benzoic acid] | 20 to 40% | 20 to 40% | 20 to 40% | > 80% | 20 to 40% | + (20% to 40% inhibition = +) | 20 to 40% | + (20% to 40% inhibition = +) | +++ (60% to 80% inhibition = +++) | > 80% | +++ (60% to 80% inhibition = +++) | 40 to 60% | +++ (60% to 80% inhibition = +++) | + (20% to 40% inhibition = +) | 40 to 60% | 20 to 40% | – |
| N#Cc1cccc(CN(Cc2ccccc2)S(=O)(=O)c2ccc(C(=O)O)cc2)c1 [Example 5-75, 4-(N-benzyl-N-(3-cyanobenzyl)sulfamoyl)benzoic acid] | – | 20 to 40% | – | – | – | – | 20 to 40% | – | – | 20 to 40% | + (20% to 40% inhibition = +) | – | – | – | – | 20 to 40% | – |
| COc1ccc(OC)c(/C=C2\SC(=S)N(CCC(=O)O)C2=O)c1 [Example 6-1, (Z)-3-(5-(2,5-dimethoxybenzylidene)-4-oxo-2-thioxothiazolidin-3-yl)propanoic acid] | – | – | – | – | – | – | – | – | – | – | – | – | – | – | – | – | IC50 [17]: 2.75 µM; inhibition at 25 µM ([1]; receptor activated to EC80 with agonist, read-out: inhibition of bitter receptor 3): 20 to 40%; inhibition at 25 µM ([3]; HEK293, read-out: inhibition of bitter receptor 10, compound at 25 μM, receptor activated to EC80 with agonist): > 80%; inhibition at 25 µM ([4]; receptor activated to EC80 with agonist, read-out: inhibition of bitter receptor 14): > 80%; inhibition at 25 µM ([5]; receptor activated to EC80 with agonist, read-out: inhibition of bitter receptor 16): 20 to 40%; inhibition of bitter receptor 44 [6, 27]: ++ (40% to 60% inhibition = ++); inhibition of bitter receptor 55 [9, 27]: + (20% to 40% inhibition = +); inhibition at 25 µM ([10]; receptor activated to EC80 with agonist, read-out: inhibition of bitter receptor 61): 40 to 60%; inhibition of bitter receptor 63 [11, 27]: + (20% to 40% inhibition = +); inhibition at 25 µM ([12]; receptor activated to EC80 with agonist, read-out: inhibition of bitter receptor 64): 60 to 80%; inhibition of bitter receptor 65 [13, 27]: + (20% to 40% inhibition = +); inhibition at 25 µM ([15]; receptor activated to EC80 with agonist, read-out: inhibition of bitter receptor 71): 20 to 40%; inhibition at 25 µM ([16]; HEK293, read-out: inhibition of bitter receptor 75, compound at 25 μM, receptor activated to EC80 with agonist): 20 to 40% |
| COc1cccc(CN(Cc2ccccc2)S(=O)(=O)c2ccc(C(=O)O)cc2)c1 [Example 5-74, 4-(N-benzyl-N-(3-methoxybenzyl)sulfamoyl)benzoic acid] | 20 to 40% | 20 to 40% | 40 to 60% | > 80% | 20 to 40% | + (20% to 40% inhibition = +) | 40 to 60% | ++ (40% to 60% inhibition = ++) | +++ (60% to 80% inhibition = +++) | > 80% | ++++ (80% or greater inhibition = ++++) | 20 to 40% | ++ (40% to 60% inhibition = ++) | + (20% to 40% inhibition = +) | 60 to 80% | – | inhibition at 25 µM [18]: 20 to 40% |
